For test [1], the target named is Alpha-N-acetylglucosaminidase (Homo sapiens) (UniProt P54802). The test is described as follows: Inhibition of alpha-hexosaminidase (unknown origin).
Test [2] has the same target. The experiment in a line: Inhibition of alpha-hexosaminidase in human PBMC using 4-methylumbelliferyl 2-acetamido-2-deoxy-alpha-D-glucopyranoside as substrate at pH 4.3 after 17 hrs by fluorescence assay.

SMILES strings stand for the structures. A value given as a limit tells only on which side of the number the result lay.

The values below come from BindingDB's records for doi:10.1016/j.ejmech.2016.09.095 (Orleans University, 2017).

Alpha-N-acetylglucosaminidase (Homo sapiens), sequence (P54802 whole entry, looked up): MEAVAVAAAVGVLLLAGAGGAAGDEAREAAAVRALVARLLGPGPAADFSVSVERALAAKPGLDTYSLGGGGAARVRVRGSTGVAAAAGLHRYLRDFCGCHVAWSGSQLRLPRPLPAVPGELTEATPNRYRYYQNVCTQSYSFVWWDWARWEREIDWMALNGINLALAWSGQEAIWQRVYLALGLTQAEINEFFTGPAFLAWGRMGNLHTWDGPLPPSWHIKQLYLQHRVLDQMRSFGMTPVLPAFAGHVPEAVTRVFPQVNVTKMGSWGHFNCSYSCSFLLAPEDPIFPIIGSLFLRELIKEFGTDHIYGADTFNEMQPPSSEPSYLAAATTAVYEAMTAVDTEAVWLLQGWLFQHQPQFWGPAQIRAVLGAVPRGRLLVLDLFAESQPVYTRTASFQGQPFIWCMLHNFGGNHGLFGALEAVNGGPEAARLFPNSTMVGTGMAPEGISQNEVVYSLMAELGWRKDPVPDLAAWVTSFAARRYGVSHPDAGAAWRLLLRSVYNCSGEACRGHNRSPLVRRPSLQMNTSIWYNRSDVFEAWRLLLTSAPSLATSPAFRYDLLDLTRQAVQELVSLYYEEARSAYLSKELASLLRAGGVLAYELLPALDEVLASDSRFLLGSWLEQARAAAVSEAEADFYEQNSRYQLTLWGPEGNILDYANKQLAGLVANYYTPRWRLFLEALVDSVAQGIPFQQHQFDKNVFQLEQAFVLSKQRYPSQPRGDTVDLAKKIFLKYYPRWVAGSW

As for `CC(=O)N[C@@H]1[C@@H](O)[C@H](O)[C@@H](CO)N[C@@H]1COCCCCc1ccccc1`, the 50% inhibitory concentration (IC50) – broadly, the midpoint of a concentration-inhibition curve – in test [1] turned out to be 100 nM.

For `CCCCC[C@H]1NC[C@@H](O)[C@@H](O)[C@H]1CO`, the IC50 in test [2] was more than 160000 nM.
